For one data set, the system named is MRSA. As to conditions: after 20 passages; cited from earlier work.
The next data set relates to BALB/3T3. The experiment in a line: Antiproliferative SRB assay. Conditions: SRB method, 72 h of treatment; highest concentration 100 μM; read-out: IC50 72h (95% CI) BALB/3T3. The data set is classed as cell-based, mouse. The text has this:
(§1) Rockville, Maryland, USA).
On the technique in general: The SRB assay estimates cell density from bound dye.

For the next data set, the system named is MCF 10A. As to the kind of experiment: Antiproliferative SRB assay. The data set is classed as cell-based, human. As to conditions: SRB method, 72 h of treatment; highest concentration 100 μM; read-out: IC50 72h (95% CI) MCF 10A.
Source text: as §1

For data set [1], the system named is Pseudomonas aeruginosa strain PCM 2058. As to the kind of experiment: Bacterial growth inhibition IC50 in LB medium. The data set is classed as cell-based. Conditions: 8-h time point, Luria-Bertani medium, 37 °C; ± SEM; read-out: IC50 for growth inhibition, Pa 2058. Here is the method:
(§2) Bacterial growth inhibition was measured on a Spark 10 M (Tecan, AT) microplate reader as described previously (Swietnicki et al., 2019). Briefly, a bacterial culture in LB medium grown at 37 °C overnight was diluted 1:100 with a fresh medium and aliquoted into a 96-well plate at 98 μL/well with a multichannel pipette. A 2 μL aliquot of compound serially diluted in DMSO was added in triplicates, the plate was covered with a lid or a transparent plate sealer, and incubated at 37 °C for up to 24 h. Bacterial growth was monitored by following an A600 reading every hour. After the experiment, the data were stored in Excel format, transferred into KaleidaGraph software (Synergy Software, Reading, PA, USA) and the A600 was plotted versus log [Concentration]. The IC50 values were determined by fitting the readings at the 8 h time point to a sigmoidal model of inhibition. Each experiment was repeated at least 3 times to verify the values.

Data set [2] has as its system Pseudomonas aeruginosa strain PCM 499. As to the kind of experiment: Bacterial growth inhibition IC50 in LB medium. The class given is cell-based. As to conditions: 8-h time point, Luria-Bertani medium, 37 °C; ± SEM; read-out: IC50 for growth inhibition, Pa499. Here is the method:
as §2

The subject of data set [3] is Yersinia enterocolitica strain PCM 2080. The experiment in a line: Bacterial growth inhibition IC50 in LB medium. The data set is classed as cell-based. As to conditions: 8-h time point, Luria-Bertani medium, 37 °C; ± SEM; read-out: IC50 for growth inhibition, Ye 2080. Here is the method:
as §2

In data set [4] the test system is Yersinia enterocolitica strain PCM 2090. As to the kind of experiment: Bacterial growth inhibition IC50 in LB medium. The data set is classed as cell-based. As to conditions: 8-h time point, Luria-Bertani medium, 37 °C; ± SEM; read-out: IC50 for growth inhibition, Ye 2090. Here is the method:
as §2

The test system of data set [5] is Y. enterocolitica strain PCM 2080 grown in the presence of 200 μM compounds. The experiment in a line: Cross-resistance generation: IC50 on compound-evolved bacteria. The class given is cell-based, Yersinia enterocolitica. Conditions: read-out: Resistance (IC50 value against the selected compound). Here is the method:
as §2
The evolution was performed in parallel using blood agar and LB agar plates prepared in-house. Briefly, a 200 μL aliquot of 200 μM compound in PBS was added to a fresh agar plate, spread on the surface, and left to dry in a BSC cabinet for approximately 30 min. After that time, a single colony from an overnight culture on a plate was spread on the surface before the plate was covered with a lid and left at 37 °C to incubate overnight. The procedure was repeated at least nine times for each plate. After the last step, a single colony was selected from a plate and added to a 3 mL aliquot of LB medium. […] Dual selection on different plates was necessary in cases where the growth inhibition was too strong to obtain single colonies on LB agar plates. […] Until then, the colonies were supplied from bacteria grown on the blood agar plates.

For data set [6], the system named is drug-resistant Y. enterocolitica strain 2080. The experiment in a line: SEM of drug-resistant bacteria. The class given is cell-based, Yersinia enterocolitica. As to conditions: for bacterial growth seen under SEM: bacteria passaged at least nine times with 200 μM compound; for mechanism of biological activity: from SEM, 200 μM. Here is the method: Scanning electron microscopy of Y. enterocolitica was performed at a low accelerating voltage of the primary beam without any coating or heavy-metal contrasting of the samples, as described in previous work. Bacteria were applied onto a polished silicon crystal chip and allowed to adhere for 30 min. The samples were fixed with 2.5% glutaraldehyde in 0.1 M cacodylate buffer for 30 min at 4 °C, then washed in water and dehydrated in a series of methanol solutions (25%-50%-75%-100%-100%) in one-hour steps at 4 °C. Samples underwent critical point drying with methanol exchanged for liquid CO2 in an automatized approach, (CPD300 AUTO, Leica Microsystems, Vienna, Austria) and imaged with a cross-beam scanning electron microscope equipped with a Schottky field-emission cathode (Auriga 60, Carl Zeiss, Oberkochen, Germany) at 0.8 kV accelerating voltage. Thus, the imaging was performed within a mode referred to as the low-voltage, field-emission scanning electron microscopy (LV-FESEM) of nonlabeled, critical point-dried samples.
Figure 3 Scanning electron microscopy of drug-resistant Y. enterocolitica strain 2080. […] After exposure to compound 1 for nine passages, there were only fragments of organic debris visible (B). In the presence of compounds 7 and 3, there were multiple bacteria observed with apparently normal morphology. Scale bars: (A) and (B) 500 nm, (C) and (E) 2.5 μm, (D) and (F) 1 μm.

The next data set concerns mammalian cell culture. Conditions: cited from earlier work.
In data set [7] the test system is zebrafish (Danio rerio) larvae. As to the kind of experiment: Danio rerio toxicity assay (modified Fish Embryo Toxicity test). The class given is in vivo. Conditions: for mortality (share of the population): 10 μM, day 5 post-exposure; for mortality rate: day 5; for visible morphological deformities: concentrations up to 10 μM. Here is the method: To determine acute toxicity of examined compounds modified Fish Embryo Toxicity (FET) test was performed of zebrafish (Danio rerio) according to OECD Test Guideline 236. Briefly, the collected embryos were transferred to a Petri dish with E3 medium (5 mM NaCl, 0.33 mM MgCl2, 0.33 mM CaCl2, 0.17 mM KCl; pH 7.2) and then placed in 24-well plates, 5 embryos per well, 10 per group. Stock solutions of boron cluster compounds were prepared in DMSO. In these experiments, three series of solutions with different concentrations were employed, which were freshly prepared by dissolving stock solutions in the E3 solution each time directly before addition to the wells. The solutions were changed once daily and the embryos were maintained in the incubator at 28.5 °C. Zebrafish embryos were evaluated for developmental abnormalities and viability at 24 h intervals for up to 5 days using a stereomicroscope (Zeiss Axio Vert, ZEISS, Germany). Morphological deformities of the heart, dorsal string, and tail development were measured and compared with the control embryos. Image analysis was performed to determine the percentage of dead and malformed embryos over time using Zeiss software. The experiment was performed in triplicate. Fish were taken from own fish facility of The Centre of Experimental Medicine, Medical University of Lublin. For the experiment AB OMD strain was used.
Figure 4 Toxicity of selected compounds on zebrafish (Danio rerio) larvae. Fish larvae were grown in 6-well plates in the presence of compounds for up to 5 days and the morphological deformities were analyzed from images as described under Materials and Methods. Representative photographs are shown. S, scoliosis; TA, tail autophagy; PE, pericardial edema.
Figure 5 Mortality rates of selected compounds on zebrafish (Danio rerio) larvae. The population size (n = 10) from Figure 4 was followed up to day 5 as described under Materials and Methods. Representative graphs are shown.

Where [8] appears, read: strain PCM 2080 grown with 200 μM compound 1 for at least nine generations.
Setting [9] is: strain PCM 2080 grown with 200 μM compound 3 for at least nine generations.
Where [10] appears, read: strain PCM 2080 grown with 200 μM compound 7 for at least nine generations.
[11] abbreviates: 2 μM, up to day 5 post-exposure.
The mark [12] stands for this setting: concentrations lower than 20 μM except 2 μM.

Read-outs that look alike come from different tables or passages of the source. Bounds are passed on as bounds.

Regarding “8-ethoxy-8′-iodo derivative of cobalt bis(1,2-dicarbollide) [Compound K121]”, the generation of resistance entry in the data set on MRSA was “not able to generate resistance”.

As to “[8-NH2-cyclo-C6H11-8′-I-3,3′-Co(1,2-C2B9H10)2] [Compound 9]”, the IC50 in the data set on BALB/3T3 was found to be 0.067 µM; in the data set with MCF 10A it was 0.082 µM.

Turning to “[8-NH2-CHEt2-8′-I-3,3′-Co(1,2-C2B9H10)2] [Compound 8]”, the IC50 in the data set with BALB/3T3 is 0.023 µM; in the data set with MCF 10A it was 0.045 µM.

As to “Cs[8-O-n-Bu-8′-I-3,3′-Co(1,2-C2B9H10)2] [Compound 2]”, the IC50 in [1] was 28 ± 8 µM; in data set [2], 12.1 ± 4 µM; in data set [3], 4.3 ± 1.5 µM; in data set [4], 2.4 ± 0.7 µM; in the data set on BALB/3T3 it was 3.7 µM; in the data set with MCF 10A, 16.1 µM.

As to “Cs[8-O-iso-Bu-8′-I-3,3′-Co(1,2-C2B9H10)2] [Compound 3]”, the IC50 in data set [1] was 59 ± 30 µM; in [2], 16.9 ± 8 µM; in data set [3], 4.2 ± 1.8 µM; in data set [4], 3.4 ± 1 µM; in [5] (setting [8]), 4.7 ± 1 µM; in data set [5] (setting [9]) it was 10.4 ± 3 µM. Further, the IC50 turned out to be 3.7 ± 1.2 µM in [5] (setting [10]), 10.2 µM in the data set with BALB/3T3 and 52.5 µM in the data set with MCF 10A. For the same substance, the “bacterial growth seen under SEM” value in [6] is “did not inhibit the growth of bacteria”. Further, in [6], the “mechanism of biological activity” value is on record as “blockage of bacterial cell division”.

For the substance “3,3′-commo-bis[closo-1,2-dicarba-3-cobaltadodecaborate](1-) [COSAN, reference compound]”, the “concentration that reversibly blocks cell growth” value in the data set with mammalian cell culture is “above 100 µM”.

In the case of “Cs[8-O-cyclo-C6H11-8′-I-3,3′-Co(1,2-C2B9H10)2] [Compound 5]”, the IC50 in [1] is 52.1 ± 15 µM; in data set [2], 52.1 ± 10 µM; in data set [3], 7.5 ± 4 µM; in data set [4] it was 3.3 ± 1 µM; in the data set on BALB/3T3, 11.7 µM; in the data set with MCF 10A it was 46.3 µM. The “mortality (share of the population)” value in data set [7] is at most 20%. For the same substance, in data set [7] (20 μM), the morphological deformities entry was “deformities of dorsal string”. The substance also gave a mortality rate in data set [7] (20 μM) of 20%. Also, the visible morphological deformities entry in data set [7] is given as “did not induce visible deformities”.

For “Cs[8-O-CHEt2-8′-I-3,3′-Co(1,2-C2B9H10)2] [Compound 4]”, the IC50 in [1] stood at 72 ± 30 µM; in data set [2], 52.9 ± 20 µM; in data set [3] it was 6.7 ± 2.3 µM; in data set [4] it was 5.3 ± 1 µM; in the data set with BALB/3T3 it was 11.3 µM; in the data set on MCF 10A it was 50 µM. The mortality entry in data set [7] (setting [11]) is “none of the animals died”; in data set [7] (20 μM, day 4), “lethal to all larvae”. Moreover, the “mortality (share of the population)” value in data set [7] is recorded as at most 20%. For the same substance, in data set [7] (setting [12]), the mortality rate stood at 20%. Moreover, the visible morphological deformities result in data set [7] was “did not induce visible deformities”.

In the case of “[8-NH2-n-Bu-8′-I-3,3′-Co(1,2-C2B9H10)2] [Compound 6]”, in the data set on BALB/3T3, the IC50 turned out to be 0.29 µM.

On to “Cs[8,8′-I2-3,3′-Co(1,2-C2B9H10)2] [Compound 1]”, for which the IC50 in data set [1] came out at 28.3 ± 6 µM; in data set [2] it was 11.4 ± 1 µM; in data set [3] it was 4.8 ± 3 µM; in data set [4] it was 2.5 ± 1.4 µM; in [5] (setting [8]) it was 2.6 ± 0.2 µM; in [5] (setting [9]), 4 ± 1 µM. Besides, the IC50 came to 3.1 ± 1 µM in data set [5] (setting [10]), 17 µM in the data set with BALB/3T3 and 59.8 µM in the data set on MCF 10A. In addition, the mortality entry in data set [7] (setting [11]) is given as “none of the animals died”; in data set [7] (20 μM, day 4), “lethal to all larvae”. Further, the mortality rate in data set [7] (setting [12]) came to 20%. Besides, the visible morphological deformities entry in data set [7] is listed as “induced visible morphological deformities”. Moreover, the “bacterial growth seen under SEM” value in [6] is recorded as “generally inhibited bacterial growth”. Also, the “mechanism of biological activity” value in data set [6] is given as “most likely being bactericidal”. Besides, in the data set with mammalian cell culture (mammalian cells), the “change of ED50 versus COSAN” value was “decreases the ED50 values approximately threefold”.

For the substance “[8-NH2-iso-Bu-8′-I-3,3′-Co(1,2-C2B9H10)2] [Compound 7]”, the IC50 in [1] is 24.7 ± 8 µM; in data set [2] it was 58.7 ± 20 µM; in data set [3] it was 1.8 ± 0.8 µM; in data set [4], 6.2 ± 0.7 µM; in data set [5] (setting [8]), over 37 µM; in data set [5] (setting [9]), over 100 µM. In addition, the IC50 in [5] (setting [10]) was over 100 µM; in the data set on BALB/3T3, 0.024 µM; in the data set on MCF 10A it was 0.115 µM. In data set [6], the “bacterial growth seen under SEM” value is “did not inhibit the growth of bacteria”. In addition, in [6], the “mechanism of biological activity” value is given as “blockage of bacterial cell division”.

(Values after publication PMC8267647, “Metallacarborane Derivatives Effective against Pseudomonas aeruginosa and Yersinia enterocolitica” (International Journal of Molecular Sciences, 2021).)
